Laboratory results published in paper PMC6906348 (Therapeutic Advances in Medical Oncology, 2019).

How the values were obtained:
[1] = Plasma pharmacokinetics; format: in vivo, human
[2] = test system: patients with advanced solid tumors; settings: cited from earlier work
[3] = test system: MET-dependent tumor models; settings: at well tolerated doses; cited from earlier work
[4] = test system: MET-amplified experimental HCC tumors; settings: cited from earlier work
[5] = test system: MET; settings: cited from earlier work

## CNC(=O)c1ccc(-c2cnc3ncc(Cc4ccc5ncccc5c4)n3n2)cc1F [capmatinib]
[1]; 300 mg BID capsule, Cycle 1 Day 1, n = 8, plasma
  Tmax, Median: 2.0 h
[1]; human, plasma, oral, 300 mg, geomean AUC0−12 h, 300 mg BID capsules, cycle 1 day 1
  AUC(0-t): 7740 ng·h/mL
[1]; human, plasma, oral, 300 mg, geomean Cmax, 300 mg BID capsules, cycle 1 day 1
  Cmax: 2140 ng/mL
[1]; patients with HCC
  steady-state accumulation: minimal
[2]
  safety profile: tolerable safety profile
[3]
  effect on MET-dependent tumor models: causes regression
[4]
  sensitivity of tumors to capmatinib: highly sensitive
[5]
  MET inhibition: highly potent and selective
